From patent US20120088667A1, “SAFENING AGENT” (priority 2009, published 2012)
Like-named read-outs stand apart in the source and are kept apart here.

What was measured:
[1] = tested on: Glycine max (Soybean); test: Root nodulation and safening, soybean, compost of normal pH (Example 7.2); conditions: compost of normal pH (6.5)
Text: The safener/safening system and the fertiliser were applied to the crops either simultaneously or sequentially.
Co=100% Cobalt Sulphate (20 g per litre and per hectare). FF1=20 g per litre Cobalt Sulphate (as per Co above) plus “Miracle-Gro” at xl recommended rate (applied at 15 g per 2.5 sq metres). Miracle-Gro contains: 24% N, 4% P, 13% K, plus 0.02% B, 0.03% Cu, 0.19% Fe, 0.05% Mn, 0.001% Mo and 0.03% Zn. FF2=20 g per litre Cobalt Sulphate plus Miracle-Gro at ×2 recommended rate. SAF: at least one from class (f) each at <3 g/l, plus at least one from class (c).
Dates as per Example 7.1 above, but sown in compost of normal pH (6.5). Each treatment represents the mean values for 12 plants, within four replicates. Sowing density 110 kg/ha. Standard inoculant applied at sowing.

[2] = tested on: Winter Barley cv Saffron; conditions: for Phytotoxicity (0-9) (0 = Dead) + 14 Days / Phytotoxicity (0-9) (0 = Dead) + 28 Days: score 0-9, 0 = Dead; for Vigour (0-9) (9 = Most Vigour) + 14 days: score 0-9, 9 = Most Vigour; for Vigour (0-9) + 28 Days: score 0-9, +28 days
Text: (§1) The safening system and the fungicide were applied to the crops either simultaneously or sequentially, either as foliar applications or as a seed treatment.
(§2) Winter Barley: cv Saffron, sown 27 May 2008, at four/five seeds per 9 cm pot, sown in standard multi-purpose compost of pH 6.5. Date of spraying: 23 July; Dates of measurement/scoring: 30 July, 14 August, 22 August. Sprayed: mid-tillering phase (GS23). Winter Wheat: cv Limerick, sown 4 Jun. 2008, at four/five seeds per 9 cm pot, sown in standard multi-purpose compost of pH 6.5. Date of spraying: 23 July; Dates of measurement/scoring: 30 July, 14 August, 23 August. Sprayed: mid-tillering phase (GS23). Maize: cv Sundance, sown 25 May 2008, at 10 seeds per 25 cm pot, in John Innes No 1 compost. Date of measurement/assessment: 15 June. Seed treatment trial. Randomised block, mean of five replicates.
(§3) SAF: at least one from class (f) each at <3 g/l, plus at least one from class (c).

[3] = tested on: Winter Wheat cv Limerick
Text: as §1, §2, §3

[4] = tested on: Oilseed rape cv Excalibur; conditions: for Greenness (0-9) (9 = Deeper Green) + 14 Days / Vigour (0-9) (9 = Most Vigour) + 14 days / Greenness (0-9) + 28 Days / Vigour (0-9) + 28 Days: score 0-9
Text: Safening systems were applied to crops of oilseed rape and winter treated with various herbicides (Bifenox (with insecticide), Carbetamide, Propaquizafop, Chlorotoluron, Isoproturon, Flumioxazin). The safening system and the herbicide were applied to the crops either simultaneously or sequentially.
Oilseed rape: cv Excalibur, sown 26 Apr. 2008, at two seeds per 9 cm pot, sown in normal pH multi-purpose compost. Date of spraying: 6 June; Dates of measurement/scoring: 13 June, 20 June, 5 July. Winter wheat: cv Alchemy, sown 23 Apr. 2008, at seven seeds per 9 cm pot, sown in normal pH multi-purpose compost. Date of spraying: 24 May; Dates of measurement/scoring: 31 May, 7 June, 21 June. SAF: at least one from class (f) each at <3 g/l, plus at least one from class (c).
Statistical Layout: Randomised Complete Block trials, under glasshouse conditions, United Kingdom.

[5] = tested on: Winter Barley cv Saffron; test: Safening of fertilisers, pot trial: phytotoxicity and vigour scores, winter barley; format: in vivo; conditions: Table 1.1, winter barley, phosphite fertiliser (KP)
Text: The safening system and the fertilizer were applied either simultaneously or sequentially.
Sprayed: mid-tillering phase (GS23). Winter Wheat: cv Limerick, sown 4 Jun. […] Sprayed: mid-tillering phase (GS23). Lettuce: cv Set, sown 10 Jul. 2008, at one seed per pot, in John Innes No 1 compost. Date of spraying: 30 July; Dates of measurement: 7 August, 14 August, 28 August. Sprayed: 2 true leaf stage.

[6] = Table 2.1, fungicide Prochloraz
[7] = Table 2.2, fungicide Flutriafol
[8] = Table 2.3, fungicides Fenpropidin and Flutriafol
[9] = Table 2.4, winter wheat, fungicide Prochloraz, score 0-9, 0 = Dead
[10] = Table 2.5, winter wheat, fungicide Flutriafol, score 0-9, 0 = Dead
[11] = score 0-9, 0 = dead, foliar, fungicides Fenpropidin and Flutriafol, Table 2.6
[12] = score 0-9, 9 = most vigour, foliar, fungicides Fenpropidin and Flutriafol, Table 2.6
[13] = herbicide Bifenox (with insecticide), Table 3.1
[14] = herbicides Carbetamide and Propaquizafop, Table 3.2
[15] = +28 days, herbicide Bifenox (with insecticide), Table 3.1
[16] = +28 days, herbicides Carbetamide and Propaquizafop, Table 3.2

Nc1ccccc1C(=O)O [AN, anthranilic acid]
Nodules Per Plant (V1) ([1]; V1, mean of 12 plants): 34.2
Nodulation Score (0-9) (V1) ([1]; V1, score 0-9): 5.9
Phyto-Toxicity Score (0-9) (V1) ([1]; V1, score 0-9): 8.0
Vigour Score (0-9) (V1) ([1]; V1, score 0-9): 6.7
Nodules Per Plant (VC) ([1]; VC): 33.3
Nod Score (0-9) (VC) ([1]; VC, score 0-9): 5.8
Phytotoxicity (0-9) (0 = Dead) + 14 Days [2, 6]: 7.5
Phytotoxicity (0-9) (0 = Dead) + 28 Days [2, 6]: 8.0
Vigour (0-9) (9 = Most Vigour) + 14 days [2, 6]: 7.0
Vigour (0-9) + 28 Days [2, 6]: 8.0
Phytotoxicity (0-9) (0 = Dead) + 14 Days [2, 7]: 7.5
Phytotoxicity (0-9) (0 = Dead) + 28 Days [2, 7]: 8.0
Vigour (0-9) (9 = Most Vigour) + 14 days [2, 7]: 7.0
Vigour (0-9) + 28 Days [2, 7]: 8.0
Phytotoxicity (0-9) (0 = Dead) + 14 Days [2, 8]: 7.5
Phytotoxicity (0-9) (0 = Dead) + 28 Days [2, 8]: 8.0
Vigour (0-9) (9 = Most Vigour) + 14 days [2, 8]: 7.0
Vigour (0-9) + 28 Days [2, 8]: 8.0
Phytotoxicity (0-9) (0 = Dead) + 14 Days [3, 9]: 7.5
Phytotoxicity (0-9) (0 = Dead) + 28 Days [3, 9]: 8.0
Vigour (0-9) (9 = Most Vigour) + 14 days ([3]; Table 2.4, winter wheat, fungicide Prochloraz, score 0-9, 9 = Most Vigour): 7.0
Vigour (0-9) + 28 Days ([3]; Table 2.4, winter wheat, fungicide Prochloraz, score 0-9): 8.0
Phytotoxicity (0-9) (0 = Dead) + 14 Days [3, 10]: 7.5
Phytotoxicity (0-9) (0 = Dead) + 28 Days [3, 10]: 8.0
Vigour (0-9) (9 = Most Vigour) + 14 days ([3]; Table 2.5, winter wheat, fungicide Flutriafol, score 0-9, 9 = Most Vigour): 7.0
Vigour (0-9) + 28 Days ([3]; Table 2.5, winter wheat, fungicide Flutriafol, score 0-9): 8.0
Phytotoxicity (0-9) (0 = Dead) + 14 Days [3, 11]: 7.5
Phytotoxicity (0-9) (0 = Dead) + 28 Days [3, 11]: 8.0
Vigour (0-9) (9 = Most Vigour) + 14 days [3, 12]: 7.0
Vigour (0-9) + 28 Days [3, 12]: 8.0
Phytotoxicity (0-9) (0 = Dead) + 14 Days ([4]; score 0-9, 0 = dead, herbicide Bifenox (with insecticide), Table 3.1): 9.0
Phytotoxicity (0-9) (0 = Dead) + 14 Days ([4]; score 0-9, 0 = dead, herbicides Carbetamide and Propaquizafop, Table 3.2): 9.0
Phytotoxicity (0-9) (0 = Dead) + 28 Days ([4]; score 0-9, 0 = dead, +28 days, herbicide Bifenox (with insecticide), Table 3.1): 8.0
Phytotoxicity (0-9) + 28 Days ([4]; score 0-9, 0 = dead, +28 days, herbicides Carbetamide and Propaquizafop, Table 3.2): 8.0
Greenness (0-9) (9 = Deeper Green) + 14 Days [4, 13]: 8.0
Vigour (0-9) (9 = Most Vigour) + 14 days [4, 13]: 9.0
Greenness (0-9) (9 = Deeper Green) + 14 Days [4, 14]: 8.0
Vigour (0-9) (9 = Most Vigour) + 14 days [4, 14]: 9.0
Greenness (0-9) + 28 Days [4, 15]: 8.0
Vigour (0-9) + 28 Days [4, 15]: 8.0
Greenness (0-9) + 28 Days [4, 16]: 8.0
Vigour (0-9) + 28 Days [4, 16]: 8.0
Phytotoxicity (0-9) (0 = Dead) + 14 Days ([5]; score 0-9, 0 = dead, +14 days): 7.5
Phytotoxicity (0-9) (0 = Dead) + 28 Days ([5]; score 0-9, 0 = dead, +28 days): 8.0
Vigour (0-9) (9 = Most Vigour) + 14 days ([5]; score 0-9, +14 days): 7.0
